Source: patent US8501786B2, “Hydroxymethyl pyrrolidines as beta 3 adrenergic receptor agonists” (Merck Sharp & Dohme Corp., priority 2009, dated 2013)
Structures can show the parent of a compound that is named as a salt. Where two headings read alike, the source gives them in different places.

Target: T1, human β3 adrenergic receptor (Homo sapiens, UniProt P13945)
T1 construct: stably transfected with the cloned β-adrenergic receptor (β1, β2 or β3); expressed in transfected cells; host or cells: Chinese hamster ovary (CHO) cells, stably transfected
T1 sequence (P13945 whole entry): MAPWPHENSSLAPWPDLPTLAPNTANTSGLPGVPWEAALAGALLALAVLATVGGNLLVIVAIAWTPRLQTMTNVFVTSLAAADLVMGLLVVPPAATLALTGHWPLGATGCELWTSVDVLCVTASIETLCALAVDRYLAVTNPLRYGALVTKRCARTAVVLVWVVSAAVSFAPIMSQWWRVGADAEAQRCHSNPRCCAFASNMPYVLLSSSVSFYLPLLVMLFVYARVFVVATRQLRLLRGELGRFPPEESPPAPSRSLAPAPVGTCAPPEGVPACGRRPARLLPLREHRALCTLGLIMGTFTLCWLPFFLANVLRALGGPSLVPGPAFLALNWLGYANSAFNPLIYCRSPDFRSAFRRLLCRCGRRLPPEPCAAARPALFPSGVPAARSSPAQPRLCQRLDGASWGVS
Assay: Functional assay: cAMP production (LANCE TR-FRET) in CHO cells stably transfected with cloned β3 adrenergic receptor
Assay type: cell-based
Protocol: Functional Assay: cAMP production in response to ligand is measured according to Barton, et al. (1991, Agonist-induced desensitization of D2 dopamine receptors in human Y-79 retinoblastoma cells. Mol. Pharmacal. v3229:650-658) modified as follows, cAMP production is measured using a homogenous time-resolved fluorescence resonance energy transfer immunoassay (LANCE™, Perkin Elmer) according to the manufacture's instructions. Chinese hamster ovary (CHO) cells, stably transfected with the cloned β-adrenergic receptor (β1, β2 or β3) are harvested after 3 days of subculturing. Harvesting of cells is done with Enzyme-free Dissociation Media (Specialty Media). Cells are then counted and resuspended in assay buffer (Hank's Balanced salt solution supplemented with 5 mM HEPES, […]) containing a phosphodiesterase inhibitor (IBMX, 0.6 mM). The reaction is initiated by mixing 6,000 cells in 6 μL with 6 μL Alexa Fluor labeled cAMP antibody (LANCE™ kit) which is then added to an assay well containing 12 μL of compound (diluted in assay buffer to 2× final concentration). The reaction proceeds for 30 min at room temperature and is terminated by the addition of 24 ul detection buffer (LANCE™ kit). The assay plate is then incubated for 1 h at room temperature and time-resolved fluorescence measured on a Perkin Elmer Envision reader or equivalent. The unknown cAMP level is determined by comparing fluorescence levels to a cAMP standard curve.
The non-selective, full agonist β-adrenergic ligand isoproterenol is used at all three receptors to determine maximal stimulation. The human β3 adrenergic receptor (AR) selective ligand (S)-N-[4-[2-[[2-hydroxy-3-(4-hydroxyphenoxy)propyl]amino]ethyl]-phenyl]-4-iodobenzenesulfonamide is used as a control in all assays. Isoproterenol is titrated at a final concentration in the assay of 10^-10 M to 10-5 and the selective ligand (S)-N-[4-[2-[[2-hydroxy-3-(4-hydroxyphenoxy)propyl]amino]ethyl]phenyl]-4-iodobenzenesulfonamide is titrated at the β3 receptor at concentration of 10^-10 M to 10^-5 M. Unknown ligands are titrated at all 3 β-adrenergic receptor subtypes at a final concentration in the assay of 10^-10 M to 10^-5 M to determine the EC50. The EC50 is defined as the concentration of compound that gives 50% activation of its own maximum. Data are analyzed using Microsoft Excel and Graphpad Prism or an internally developed data analysis software package.

[1] = Table 2, cAMP production, CHO cells expressing human β3 AR, read-out: Human β3 functional
[2] = Table 3, cAMP production, CHO cells expressing human β3 AR, read-out: Human β3 functional
[3] = Table 4, cAMP production, CHO cells expressing human β3 AR, read-out: Human β3 functional
[4] = Table 6, human β3 functional activity given as ranges, read-out: Human β3 functional

| Structure (SMILES) | EC50 [2] | other results |
| --- | --- | --- |
| O=C(CC1NC(=O)NC1=O)Nc1ccc(CC2CC[C@H]([C@H](O)c3cccnc3)N2)cc1 (stereo partly drawn) [Example 71] | – | EC50 [1]: 101 to 1000 nM |
| Nc1nc2c(s1)CCC2C(=O)Nc1ccc(CC2CC[C@H]([C@H](O)c3cccnc3)N2)cc1 (single isomer, unassigned) [Example 114] | 11 to 100 nM | – |
| Cc1nc2c(s1)CCCC2C(=O)Nc1ccc(CC2CC[C@H]([C@H](O)c3cccnc3)N2)cc1 (single isomer, unassigned) [Example 132] | 101 to 1000 nM | – |
| N#Cc1ccc(S(=O)(=O)Nc2ccc(CC3CC[C@H]([C@H](O)c4cccnc4)N3)cc2)cc1 (stereo partly drawn) [Example 237] | – | EC50 [3]: 101 to 1000 nM |
| O=C(O)c1nc2c(s1)CCC2C(=O)Nc1ccc(CC2CC[C@H]([C@H](O)c3cccnc3)N2)cc1 (single isomer, unassigned) [Example 137] | 1 to 10 nM | – |
| NC(=O)c1cnn(CC(=O)Nc2ccc(CC3CC[C@H]([C@H](O)c4cccnc4)N3)cc2)c1 (stereo partly drawn) [Example 90] | – | EC50 [1]: 11 to 100 nM |
| COC(=O)CCC(=O)Nc1ccc(CC2CC[C@H]([C@H](O)c3cccnc3)N2)cc1 (stereo partly drawn) [Example 83] | – | EC50 [1]: 101 to 1000 nM |
| Cc1nc2c(s1)CCCC2C(=O)Nc1ccc(CC2CC[C@H]([C@H](O)c3cccnc3)N2)cc1 (single isomer, unassigned) [Example 131] | 1 to 10 nM | – |
| Cc1nc2c(s1)CCC2(C)C(=O)Nc1ccc(CC2CC[C@H]([C@H](O)c3cccnc3)N2)cc1 (single isomer, unassigned) [Example 130] | 101 to 1000 nM | – |
| Nc1nc2c(s1)CCC2C(=O)Nc1ccc(CC2CC[C@H]([C@H](O)c3cccnc3)N2)cc1 (single isomer, unassigned) [Example 113] | < 1 nM | – |
| CC(N)C(=O)Nc1ccc(C[C@@H]2CC[C@H]([C@H](O)c3cccnc3)N2)cc1 (stereo partly drawn) [Example 254] | – | EC50 [4]: 11 to 100 nM |
| O=C(Cn1[nH]c(=O)c2ccccc2c1=O)Nc1ccc(CC2CC[C@H]([C@H](O)c3cccnc3)N2)cc1 (stereo partly drawn) [Example 67] | – | EC50 [1]: 11 to 100 nM |
| NC(=O)c1nn(CC(=O)Nc2ccc(CC3CC[C@H]([C@H](O)c4cccnc4)N3)cc2)c(=O)c2ccccc12 (stereo partly drawn) [Example 56] | – | EC50 [1]: 1 to 10 nM |
| Cc1nc(CC(=O)Nc2ccc(CC3CC[C@H]([C@H](O)c4cccnc4)N3)cc2)no1 (stereo partly drawn) [Example 80] | – | EC50 [1]: 11 to 100 nM |
| O=S(=O)(Nc1ccc(CC2CC[C@H]([C@H](O)c3cccnc3)N2)cc1)c1ccc2cnccc2c1 (stereo partly drawn) [Example 228] | – | EC50 [3]: 101 to 1000 nM |
| O=C(Cc1nc2c(s1)CCC2C(=O)Nc1ccc(CC2CC[C@H]([C@H](O)c3cccnc3)N2)cc1)NCc1ccccc1 (single isomer, unassigned) [Example 135] | 11 to 100 nM | – |
| O=C(Cn1ncccc1=O)Nc1ccc(CC2CC[C@H]([C@H](O)c3cccnc3)N2)cc1 (stereo partly drawn) [Example 52] | – | EC50 [1]: 1 to 10 nM |
| CC(C(=O)Nc1ccc(CC2CC[C@H]([C@H](O)c3cccnc3)N2)cc1)n1cccn1 (single isomer, unassigned) [Example 98] | 11 to 100 nM | – |
| O=C(Cc1nc2ccccc2[nH]1)Nc1ccc(CC2CC[C@H]([C@H](O)c3cccnc3)N2)cc1 (stereo partly drawn) [Example 17] | – | EC50 [1]: 11 to 100 nM |
| O=C(Cc1ccccn1)Nc1ccc(CC2CC[C@H]([C@H](O)c3cccnc3)N2)cc1 (stereo partly drawn) [Example 14] | – | EC50 [1]: 11 to 100 nM |
| O=S(=O)(Nc1ccc(CC2CC[C@H]([C@H](O)c3cccnc3)N2)cc1)c1ccc(I)cc1 (stereo partly drawn) [Example 224] | – | EC50 [3]: 11 to 100 nM |
| O=C(Cn1nc(Cc2ccccc2)c2ccccc2c1=O)Nc1ccc(CC2CC[C@H]([C@H](O)c3cccnc3)N2)cc1 (stereo partly drawn) [Example 8] | – | EC50 [1]: 1 to 10 nM |
| C[C@H](C(=O)Nc1ccc(C[C@@H]2CC[C@H]([C@H](O)c3cccnc3)N2)cc1)c1ccccn1 (single isomer, unassigned) [Example 93, trifluoroacetic acid salt] | – | EC50 (cAMP production, CHO cells expressing human β3 AR, read-out: human Beta-3 agonist functional activity): < 100 nM |
| O=C(CN1C(=O)CCC1=O)Nc1ccc(CC2CC[C@H]([C@H](O)c3cccnc3)N2)cc1 (stereo partly drawn) [Example 43] | – | EC50 [1]: 11 to 100 nM |
| O=C(CC1NC(=S)N(c2ccccc2)C1=O)Nc1ccc(CC2CC[C@H]([C@H](O)c3cccnc3)N2)cc1 (stereo partly drawn) [Example 72] | – | EC50 [1]: 11 to 100 nM |
| CC(NS(=O)(=O)Cc1ccccc1)C(=O)Nc1ccc(C[C@@H]2CC[C@H]([C@H](O)c3cccnc3)N2)cc1 (stereo partly drawn) [Example 258] | – | EC50 [4]: 11 to 100 nM |
| Nc1nc(CC(=O)Nc2ccc(CC3CC[C@H]([C@H](O)c4cccnc4)N3)cc2)cs1 (stereo partly drawn) [Example 3] | – | EC50 [1]: 1 to 10 nM |
| CCCC(C(=O)Nc1ccc(CC2CC[C@H]([C@H](O)c3cccnc3)N2)cc1)c1csc(N)n1 (single isomer, unassigned) [Example 107] | 11 to 100 nM | – |
| Cc1nc(C(C)C(=O)Nc2ccc(CC3CC[C@H]([C@H](O)c4cccnc4)N3)cc2)cs1 (single isomer, unassigned) [Example 101] | 1 to 10 nM | – |

Further lines, with some results ahead:

| EC50 [2] | Structure (SMILES) | other results |
| --- | --- | --- |
| 1 to 10 nM | CC(C(=O)Nc1ccc(CC2CC[C@H]([C@H](O)c3cccnc3)N2)cc1)n1ccnn1 (single isomer, unassigned) [Example 148] | – |
| 1 to 10 nM | O=C(Nc1ccc(CC2CC[C@H]([C@H](O)c3cccnc3)N2)cc1)[C@H]1CCc2nnnn21 (stereo partly drawn) [Example 173] | – |
| 11 to 100 nM | CC(C(=O)Nc1ccc(CC2CC[C@H]([C@H](O)c3cccnc3)N2)cc1)n1cc(C(=O)O)nn1 (single isomer, unassigned) [Example 198] | – |
| 11 to 100 nM | CC(C(=O)Nc1ccc(CC2CC[C@H]([C@H](O)c3cccnc3)N2)cc1)n1cnnn1 (single isomer, unassigned) [Example 182] | – |
| 101 to 1000 nM | CC(C(=O)Nc1ccc(CC2CC[C@H]([C@H](O)c3cccnc3)N2)cc1)c1ccn(C)n1 (single isomer, unassigned) [Example 215] | – |
| 1 to 10 nM | CC(C(=O)Nc1ccc(C[C@@H]2CC[C@H]([C@H](O)c3cccnc3)N2)cc1)n1ncccc1=O (single isomer, unassigned) [Example 163] | – |
| 11 to 100 nM | Cc1cn(C(C)C(=O)Nc2ccc(CC3CC[C@H]([C@H](O)c4cccnc4)N3)cc2)nn1 (single isomer, unassigned) [Example 210] | – |
| 11 to 100 nM | CC(C(=O)Nc1ccc(CC2CC[C@H]([C@H](O)c3cccnc3)N2)cc1)c1ccn[nH]1 (single isomer, unassigned) [Example 179] | – |
| 11 to 100 nM | O=C(Nc1ccc(CC2CC[C@H]([C@H](O)c3cccnc3)N2)cc1)C1CCc2sc(CO)nc21 (single isomer, unassigned) [Example 189] | – |
| 1 to 10 nM | O=C(Nc1ccc(CC2CC[C@H]([C@H](O)c3cccnc3)N2)cc1)C1CCc2nccc(=O)n21 (single isomer, unassigned) [Example 161] | – |
| 1 to 10 nM | CC(C(=O)Nc1ccc(CC2CC[C@H]([C@H](O)c3cccnc3)N2)cc1)c1nccs1 (single isomer, unassigned) [Example 174] | – |
| 11 to 100 nM | Cc1cc(C(C)C(=O)Nc2ccc(CC3CC[C@H]([C@H](O)c4cccnc4)N3)cc2)[nH]n1 (single isomer, unassigned) [Example 176] | – |
| < 1 nM | O=C(Nc1ccc(CC2CC[C@H]([C@H](O)c3cccnc3)N2)cc1)C1CCc2sc(Br)nc21 (single isomer, unassigned) [Example 158] | – |
| 11 to 100 nM | Cc1nnc(C(C)C(=O)Nc2ccc(CC3CC[C@H]([C@H](O)c4cccnc4)N3)cc2)[nH]1 (single isomer, unassigned) [Example 153] | – |
| 1 to 10 nM | CC(C(=O)Nc1ccc(CC2CC[C@H]([C@H](O)c3cccnc3)N2)cc1)n1cc(C(N)=O)cn1 (single isomer, unassigned) [Example 219] | – |
| 1 to 10 nM | CC(C(=O)Nc1ccc(CC2CC[C@H]([C@H](O)c3cccnc3)N2)cc1)c1ccn[nH]1 (single isomer, unassigned) [Example 178] | – |
